The results in this text go back to patent publication US20030134859A1 (SANKYO COMPANY, LIMITED, priority 2000, published 2003).

The target in experiment [1] is T1, human PPAR γ 2 (Homo sapiens, UniProt P37231).
T1 construct: expressed in transfected cells; host or cells: human osteosarcoma MG63, transiently co-transfected with pSG5-hPPARg and the reporter pGV-P2-PPRE
T1 sequence (P37231 1-505): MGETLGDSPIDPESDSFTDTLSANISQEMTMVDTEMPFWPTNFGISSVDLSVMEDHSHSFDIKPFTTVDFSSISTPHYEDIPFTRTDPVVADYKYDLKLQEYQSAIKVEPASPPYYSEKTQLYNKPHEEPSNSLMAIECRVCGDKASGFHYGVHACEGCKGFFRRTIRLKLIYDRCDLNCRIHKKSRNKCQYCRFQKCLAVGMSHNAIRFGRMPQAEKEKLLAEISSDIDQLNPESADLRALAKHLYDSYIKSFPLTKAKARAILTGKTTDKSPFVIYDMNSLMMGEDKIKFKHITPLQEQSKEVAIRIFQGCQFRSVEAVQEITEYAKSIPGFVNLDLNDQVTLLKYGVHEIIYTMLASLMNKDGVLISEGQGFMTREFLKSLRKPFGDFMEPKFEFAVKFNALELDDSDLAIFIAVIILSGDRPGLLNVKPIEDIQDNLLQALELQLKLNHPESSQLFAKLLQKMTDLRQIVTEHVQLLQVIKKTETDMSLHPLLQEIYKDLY
Put plainly: PPAR γ transcriptional activity, luciferase reporter, test compound alone. In kind it is cell-based. To be noted: concentration indicating Emax/2, MG63 cells transfected with pSG5-hPPARg and pGV-P2-PPRE, 24 hr. Summed up: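 Human osteosarcoma MG63 cells transiently co-transfected with human PPARγ2 expression plasmid and PPRE-luciferase reporter (rat acyl-CoA oxidase promoter element), then exposed 24 h to test compound alone. Luciferase luminescence gave dose-response curves; EC50 is the concentration giving half of the compound's maximal activity (Emax).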
(In general: In a reporter assay the amount or activity of a reporter protein is the signal.)

For experiment [2], the target named is T1, human PPAR γ 2. Kind of experiment: Inhibitory activity against PPAR γ transcription in the presence of agonist compound A, luciferase reporter. In kind it is cell-based. The following applies: in the presence of 10 nM compound A (agonist); MG63 cells transfected with pSG5-hPPARg and pGV-P2-PPRE; 24 hr.

At human PPAR γ 2 [1], `CCN(c1ccc(NS(=O)(=O)c2ccc(NC(=O)c3cc([N+](=O)[O-])ccc3Cl)cc2)cc1)C(C)C` [Example 232, N-[[4-[4-(N-Ethyl-N-isopropylamino)phenyl]aminosulfonyl]phenyl]-(2-chloro-5-nitrophenyl)carboxamide] registered an EC50 of 610 nM. At human PPAR γ 2 [2], the IC50 amounted to 56 nM.
For `CC(O)c1cccc(NC(=O)c2cc([N+](=O)[O-])ccc2Cl)c1` (stereo not drawn) [Example 239, N-[3-(1-Hydroxyethyl)phenyl]-(2-chloro-5-nitrophenyl)carboxamide] the same measures were 44 nM and 52 nM.
For `O=C(Nc1ccc(NC(=S)Nc2cccnc2)cc1)c1cc([N+](=O)[O-])ccc1Cl` [Example 257, N-[4-[(Pyridin-3-yl)aminothiocarbonylamino]phenyl]-(2-chloro-5-nitrophenyl)carboxamide], in that order: 120 nM and 130 nM.
For `O=C(Nc1ccc(NC(=S)Nc2ccncc2)cc1)c1cc([N+](=O)[O-])ccc1Cl` [Example 259, N-[4-[(Pyridin-4-yl)aminothiocarbonylamino]phenyl]-(2-chloro-5-nitrophenyl)carboxamide], in that order: 0.7 nM and 31 nM.
Take “N-(Ethoxyphenyl)-(2-chloro-5-nitrophenyl)carboxamide [Example 229]”: the EC50 at human PPAR γ 2 [1] was 160 nM. Besides, at human PPAR γ 2 [2], the IC50 is 46 nM.
“N-[4-(Pyrrolidinylsulfonyl)phenyl]-(2-chloro-5-nitrophenyl)carboxamide [Example 152]” gave an EC50 at human PPAR γ 2 [1] of 8.7 nM. Besides, at human PPAR γ 2 [2], the IC50 came to 42 nM.

In general, EC50 refers to the concentration at which the effect is half-maximal. A high value points to a less potent agent. As a reminder, the IC50 is the midpoint of a concentration-inhibition curve.
